# Test results taken from US20120214802A1, “PYRROLIDINE COMPOUNDS WHICH INHIBIT BETA-SECRETASE ACTIVITY AND METHODS OF USE THEREOF” (priority 2009, published 2012).
# pIC50, pKi: −log10 of the molar value.
# What was measured:
# memapsin 2 [1] = target: memapsin 2 (Homo sapiens, UniProt P56817); test: Inhibition of memapsin 2 beta-secretase activity (fluorogenic substrate FS-2); assay type: biochemical; conditions: pH 4, 37° C., read-out: M2 Ki
# Procedure: Potency of compounds were determined by measurement of their inhibition of memapsin 2 activity toward a fluorescent substrate. Kinetic inhibition experiments were performed using the procedure as described in Ermolieff, et al. (Biochemistry 39:12450-12456 (2000), the teachings of which are incorporated hereby in their entirety). Briefly, assays were performed at pH 4, 37° C., by pre-incubation of memapsin 2 enzyme with compound for 20 minutes. Activity measurements were initiated by addition of a fluorogenic substrate FS-2 (Bachem Americas, Torrance, Calif.) MCA-SEVNLDAEFR-DNP (SEQ ID NO.: 2). The substrate was derived from 10 amino acids of the human amyloid precursor protein (APP), with the Swedish variant amino acids at the beta-secretase cleavage site. The terminal amino acid was modified from arginine to lysine to facilitate derivatization with a functional group for detection by autofluorescence. The amino acid sequence of the “core” peptide of the substrate is SEVNLDAEFK (SEQ ID NO.: 3). The amino terminus was derivatized with (7-methoxycoumarin-4-yl)acetyl (MCA), and the epsilon amine of the lysine side chain of the terminal residue (K in sequence SEVNLDAEFK (SEQ ID NO.: 3)) was derivatized with 2,4-dinitorphenyl (DNP).
# CYP3A4 = target: T1, CYP3A4 (Homo sapiens, UniProt P08684); test: CYP3A4 inhibition (midazolam metabolism in human liver microsomes); assay type: in vitro ADME; conditions: substrate midazolam, read-out: CYP 3A4Ki
# T1 construct: host or cells: human liver microsomes
# Procedure: To evaluate the drug-drug interaction potential for compounds, the potency to inhibit the major metabolic cytochrome CYP450 isoform 3A4 was assessed. The inhibition constant Ki was determined for inhibition of the metabolism of midazolam, a CYP3A4 substrate.
# CYP3A4 Ki assays were performed following a recently published protocol with slight modifications (Di, L., Kerns, E. H., Li, S. Q., and Carter, G. T. (2007) Comparison of cytochrome P450 inhibition assays for drug discovery using human liver microsomes with LC-MS, rhCYP450 isozymes with fluorescence, and double cocktail with LC-MS. International Journal of Pharmaceutics 335: 1-11). The P450 inhibition assay was performed in 96-well plates at 37.2° C. in a shaking incubator. The compounds were diluted from 5 mM stocks in 100% DMSO and incubated at seven final concentrations from 0.078 to 10 μM (0.1% DMSO in each final incubation), with human liver microsomes (HLM) at a final protein concentration of 0.1 mg/mL protein and a substrate concentration ranging from 1.25 to 10 μM.
# The assay was standardized for both phosphate buffer (100 mM, pH 7.4) and the NADPH regenerating system (MgCl2, 3.3 mM; G6P, 3.3 mM; G6PD, 1 U/ml; NADP+, 1.3 mM). Eight replicate control samples (0.1% DMSO, no compound) were prepared. Assays (200 μL) were set up by mixing HLM+substrate stock, 10 μL of test article in 2% DMSO, and the substrate before initiating the reaction with the addition of the regenerating system mixture. Reactions were quenched following incubation for 20, 30 and 40 minutes as described following.
# After incubation for the specified time in a humidified shaking incubator, 20 μL of the reaction mixture was removed and the reactions were terminated by adding 200 μL of cold acetonitrile. Samples were centrifuged at 1000×g for 15 minutes in Solvinert filter plate. The receptor plate was dried via speed vacuum at 40° C. The sample was reconstituted with a reconstitution buffer composed of 10% acetonitrile, 10% DMSO, 80% H2O with an internal standard added at a concentration of 100 ng/ml. MS-Analysis was completed using LC-MS/MS. Formation of 1′-hydroxymidazolam was measured by monitoring a specific SRM (342>203) transition for the CYP3A4 metabolite.
# Data were expressed as the relative quantity of midazolam metabolite relative to control incubations. Initial velocities were obtained by multiplying the relative quantity by the initial substrate concentration and dividing by the incubation duration. Data were transformed to inverse of inivital velocity and expressed vs. inhibitor concentration [I] for determination of Ki by the Dixon method (Dixon, M. (1953) Biochemical Journal 55: 170-171) using where intercept [I]=−Ki was determined at multiple substrate concentrations.
# memapsin 2 [2] = target: T2, memapsin 2 (Cricetulus griseus, UniProt G3IAK4); test: Cellular Aβ IC50 determination (Aβ40 sandwich ELISA); assay type: cell-based, Chinese hamster; conditions: CHO cells over-expressing human APP695 with London and Swedish mutations, 24 h, read-out: M2 IC50
# T2 construct: endogenous in cells; host or cells: Chinese hamster ovary cells over-expressing human APP695 (London + Swedish)
# Procedure: The potency of compounds against memapsin 2 activity was determined in a cellular assay of Aβ production. […] Chinese hamster ovary cells that over-express human APP695 with the London and Swedish mutations were seeded in multi-well plates at 10% confluency. Compounds are dissolved in DMSO to concentrations near 1 mM, and diluted into culture media to a final concentration near 4 μM (final 0.4% DMSO). Compounds were diluted serially and applied to cells in multi-well plates 48 h after seeding. Incubation was continued in 5% CO2 at 37° C. for 24 h. Aliquots were removed and assayed for […] using a sandwich ELISA (BioSource International). Amount of Aβ40 over the range of concentration of compounds, relative to control incubations, were fit to a 4-parameter IC50 model.
# [3] = Hepatic intrinsic clearance in liver microsomes; assay type: in vitro ADME; conditions: human, pH 7.4, human liver microsomes, in vitro clearance, read-out: HLM CL
# Procedure: To 500 μl of 200 mM Na^+K^+phosphate buffer (pH 7.4), 100 μl of 1 mM EDTA solution was added followed by 100 μl of 2 mg protein/ml human liver microsomes. A 10 μl aliquot of test compound (20 mM stock in 50% acetonitrile) was diluted further with 40 μl of H2O (total assay volume […]. Assay mixture is incubated for 5 minutes at 37° C. The assay was initiated by addition of 250 μl of 4 mM NADPH solution. Incubation was continued at 37° C. Separate reaction mixtures were prepared for 0, 5, 10, 20, and 30 min durations. Individual reactions were halted by addition of 150 μl of 100% acetonitrile. Internal standard (10 μl of 100 ng/ml diazepam solution) was added. Concentration of the test compound in each separate reaction was measured using LC/MS/MS and a standard curve for the test compound according to standard procedures.
# The hepatic intrinsic clearance in liver microsome was determined by the following procedure described by Davies and Morris (Davies, B. and Morris, T. (19930) Physiological parameters in laboratory animals and humans. Pharm Res. 10:1093-1095) detailing the relationship of in vitro clearance to physiological parameters in animals and human subjects.
# The amount of compound remaining at each time point was expressed relative to the amount present in the initial (0 min) incubation. The relationship of relative amount vs. time was used to determine the half life of the compound in the microsome assay. The concentration independent rate constant, k1, was determined from rectangular hyperbolic fit:
# where T is time (in minutes), from the relationship of relative amount vs. time. Alternatively, k1 was determined from a transform of the equation, where
# Conversion to in vivo clearance was obtained from the relation (Davies and Morris, 1993):
# where v=velocity of metabolism, [S] is the concentration of the compound, and volumes are expressed in mL.
# T1 sequence (P08684 whole entry): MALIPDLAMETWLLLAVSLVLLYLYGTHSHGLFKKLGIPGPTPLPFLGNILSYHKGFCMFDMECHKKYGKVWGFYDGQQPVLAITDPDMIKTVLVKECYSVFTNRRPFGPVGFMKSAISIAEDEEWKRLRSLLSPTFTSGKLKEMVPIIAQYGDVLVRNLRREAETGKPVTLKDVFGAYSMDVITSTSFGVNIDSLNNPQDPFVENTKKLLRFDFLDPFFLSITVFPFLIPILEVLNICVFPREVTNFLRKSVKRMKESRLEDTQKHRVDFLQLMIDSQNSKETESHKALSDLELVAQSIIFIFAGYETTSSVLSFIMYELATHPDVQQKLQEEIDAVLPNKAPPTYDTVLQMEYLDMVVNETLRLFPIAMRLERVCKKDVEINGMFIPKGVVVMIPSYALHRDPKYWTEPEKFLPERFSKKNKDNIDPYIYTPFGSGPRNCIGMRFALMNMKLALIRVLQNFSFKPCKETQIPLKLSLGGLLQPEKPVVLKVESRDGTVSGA
# memapsin 2 (Homo sapiens, UniProt P56817), sequence (P56817 46-501): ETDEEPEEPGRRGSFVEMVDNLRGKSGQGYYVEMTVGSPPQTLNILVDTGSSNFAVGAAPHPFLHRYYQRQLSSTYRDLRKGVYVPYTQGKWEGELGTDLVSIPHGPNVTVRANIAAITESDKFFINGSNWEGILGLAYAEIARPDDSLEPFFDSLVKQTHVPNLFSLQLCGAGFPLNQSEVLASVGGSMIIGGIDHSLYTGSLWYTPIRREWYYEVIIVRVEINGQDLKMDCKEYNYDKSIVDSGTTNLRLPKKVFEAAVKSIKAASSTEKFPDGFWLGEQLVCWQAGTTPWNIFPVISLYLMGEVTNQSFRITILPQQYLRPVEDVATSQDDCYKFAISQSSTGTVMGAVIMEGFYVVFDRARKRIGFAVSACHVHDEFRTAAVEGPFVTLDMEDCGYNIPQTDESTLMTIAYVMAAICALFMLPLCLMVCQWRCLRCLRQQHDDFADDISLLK
# T2 sequence (G3IAK4 22-501): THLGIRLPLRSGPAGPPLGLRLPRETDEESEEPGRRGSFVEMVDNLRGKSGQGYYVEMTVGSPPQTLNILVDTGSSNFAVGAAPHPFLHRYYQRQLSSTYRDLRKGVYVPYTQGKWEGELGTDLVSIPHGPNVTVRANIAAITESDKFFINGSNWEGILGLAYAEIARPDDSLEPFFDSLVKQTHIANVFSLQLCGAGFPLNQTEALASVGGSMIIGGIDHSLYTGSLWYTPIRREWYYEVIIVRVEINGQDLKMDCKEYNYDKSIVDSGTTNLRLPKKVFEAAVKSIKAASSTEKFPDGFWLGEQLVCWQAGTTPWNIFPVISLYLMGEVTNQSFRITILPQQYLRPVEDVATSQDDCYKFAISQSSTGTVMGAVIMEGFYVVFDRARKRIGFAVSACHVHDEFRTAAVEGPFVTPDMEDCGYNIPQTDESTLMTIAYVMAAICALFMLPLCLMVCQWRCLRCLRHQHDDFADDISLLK
Compound,pKi (memapsin 2 [1]),pKi (CYP3A4),pIC50 (memapsin 2 [2]),CLint scaled at 200 μM [3] [mL/min/kg]
"Cc1coc([C@H]2CCCN2C(=O)c2cc(C(=O)N[C@@H](Cc3ccccc3)[C@H](O)[C@H]3CCCN3)cc(N(C)S(C)(=O)=O)c2)n1 [1-28, N-((1R,2S)-1-hydroxy-3-phenyl-1-((R)-pyrrolidin-2-yl)propan-2-yl)-3-(N-methylmethylsulfonamido)-5-((R)-2-(4-methyloxazol-2-yl)pyrrolidine-1-carbonyl)benzamide]",> 6.60,< 5.00,,
"Cc1csc(CN(C)C(=O)c2cc(C(=O)N[C@@H](Cc3ccccc3)[C@H](O)[C@H]3CCCN3)cc(-c3cnco3)c2)n1 [1-12, N1-((1R,2S)-1-hydroxy-3-phenyl-1-((R)-pyrrolidin-2-yl)propan-2-yl)-N3-methyl-N3-((4-methylthiazol-2-yl)methyl)-5-(oxazol-5-yl)isophthalamide]",> 6.60,,< 6.00,< 400
"Cc1coc([C@H]2CCCN2C(=O)c2cc(C(=O)N[C@@H](Cc3ccccc3)[C@H](O)[C@H]3CCCN3)cc(-n3cccc3)c2)n1 [1-26, N-((1R,2S)-1-hydroxy-3-phenyl-1-((R)-pyrrolidin-2-yl)propan-2-yl)-3-((R)-2-(4-methyloxazol-2-yl)pyrrolidine-1-carbonyl)-5-(1H-pyrrol-1-yl)benzamide]",> 6.60,5.00 to 5.30,,
"Cc1csc([C@H]2CCCN2C(=O)c2cc(CF)cc(C(=O)N[C@@H](Cc3ccccc3)[C@H](O)[C@H]3C[C@@H](OCc4ccccc4)CN3)c2)n1 [1-36, N-((1R,2S)-1-((2R,4R)-4-(benzyloxy)pyrrolidin-2-yl)-1-hydroxy-3-phenylpropan-2-yl)-3-(fluoromethyl)-5-((R)-2-(4-methylthiazol-2-yl)pyrrolidine-1-carbonyl)benzamide]",> 6.60,< 5.00,> 6.30,
"Cc1csc(CN(C(=O)c2cccc(C(=O)N[C@@H](Cc3ccccc3)[C@H](O)CNCc3cccc(C(F)(F)F)c3)c2)C2CC2)n1 [2-9, N1-cyclopropyl-N3-((2S,3R)-3-hydroxy-1-phenyl-4-(3-(trifluoromethyl)benzylamino)butan-2-yl)-N1-((4-methylthiazol-2-yl)methyl)isophthalamide, reference compound]",> 6.60,> 6.00,> 6.30,
"COc1cc(C(=O)N[C@@H](Cc2ccccc2)[C@H](O)[C@H]2CCCN2)cc(C(=O)N2CCC[C@@H]2c2nc(C)cs2)c1 [1-34, N-((1R,2S)-1-hydroxy-3-phenyl-1-((R)-pyrrolidin-2-yl)propan-2-yl)-3-methoxy-5-((R)-2-(4-methylthiazol-2-yl)pyrrolidine-1-carbonyl)benzamide]",> 6.60,5.00 to 5.30,< 6.00,
"Cc1csc([C@H]2CCCN2C(=O)c2cc(C(=O)N[C@@H](Cc3ccccc3)[C@H](O)[C@H]3CCCN3)cc(-c3cnccn3)c2)n1 [1-20, N-((1R,2S)-1-hydroxy-3-phenyl-1-((R)-pyrrolidin-2-yl)propan-2-yl)-3-((R)-2-(4-methylthiazol-2-yl)pyrrolidine-1-carbonyl)-5-(pyrazin-2-yl)benzamide]",> 6.60,< 5.00,> 6.30,
"Cc1csc([C@H]2CCCN2C(=O)c2cccc(C(=O)N[C@@H](Cc3ccccc3)[C@H](O)CNCc3cccc(C(C)(C)C)c3)c2)n1 [2-10, N-((2S,3R)-4-(3-tert-butylbenzylamino)-3-hydroxy-1-phenylbutan-2-yl)-3-((R)-2-(4-methylthiazol-2-yl)pyrrolidine-1-carbonyl)benzamide, reference compound]",> 6.60,> 6.00,> 6.30,

# Results, then the compound that gave them:
pKi (memapsin 2 [1]),pKi (CYP3A4),pIC50 (memapsin 2 [2]),CLint scaled at 200 μM [3] [mL/min/kg],Compound
> 6.60,> 6.00,> 6.30,,"Cc1cc(C(=O)N[C@@H](Cc2ccccc2)[C@H](O)CNCc2cncc(C(C)C)c2)cc(C(=O)N2CCC[C@@H]2c2nc(C)cs2)c1 [2-8, N-((2S,3R)-3-hydroxy-4-((5-isopropylpyridin-3-yl)methylamino)-1-phenylbutan-2-yl)-3-methyl-5-((R)-2-(4-methylthiazol-2-yl)pyrrolidine-1-carbonyl)benzamide, reference compound]"
< 6.12,5.00 to 5.30,< 6.00,,"Cc1csc([C@H]2CCCN2C(=O)c2cc(C(=O)N[C@@H](Cc3ccccc3)[C@H](O)[C@H]3CCCN3)cc(N3CCOCC3)c2)n1 [1-33, N-((1R,2S)-1-hydroxy-3-phenyl-1-((R)-pyrrolidin-2-yl)propan-2-yl)-3-((R)-2-(4-methylthiazol-2-yl)pyrrolidine-1-carbonyl)-5-morpholinobenzamide]"
> 6.60,> 6.00,> 6.30,,"Cc1cc(C(=O)N[C@@H](Cc2ccccc2)[C@H](O)CNCc2cncc(C(C)(C)C)c2)cc(C(=O)N2CCC[C@@H]2c2nc(C)co2)c1 [2-11, N-((2S,3R)-4-((5-tert-butylpyridin-3-yl)methylamino)-3-hydroxy-1-phenylbutan-2-yl)-3-methyl-5-((R)-2-(4-methyloxazol-2-yl)pyrrolidine-1-carbonyl)benzamide, reference compound]"
> 6.60,5.30 to 6.00,> 6.30,,"Cc1csc([C@H]2CCCN2C(=O)c2cc(C(=O)N[C@@H](Cc3ccccc3)[C@H](O)[C@H]3C[C@@H](OCc4ccccc4)CN3)cc(-c3ncco3)c2)n1 [1-52, N-((1R,2S)-1-((2R,4R)-4-(benzyloxy)pyrrolidin-2-yl)-1-hydroxy-3-phenylpropan-2-yl)-3-((R)-2-(4-methylthiazol-2-yl)pyrrolidine-1-carbonyl)-5-(oxazol-2-yl)benzamide]"
